This note sets out measurements from patent US7855199B2, “Heterocyclic compound and anti-malignant-tumor agent containing the same as active ingredient” (Zenyaku Kogyo Kabushiki Kaisha, priority 2004, dated 2010).

Data set [1] in a line: Test 1 (Pharmacokinetics Study), oral administration to mice, serum drug concentration by HPLC. The format is in vivo. Particulars: male, BDF1, mouse, oral 200 mg/kg, mice fasting for 16 hours, 1-24 hours after administration, read-out: AUC1h-24h. Here is the method: Pharmacokinetics study was conducted, using six-week-old BDF1 male mice. Test compound was dissolved in dichloromethane together with hydroxypropyl cellulose (low-molecular weight)(HPC(L)) 2.5 times as much as the drug weight, dried under reduced pressure and was suspended in distilled water so as to have the drug concentration of 20 mg/mL. The test compound was forcedly orally administered to mice fasting for 16 hours with dose of 200 mg/kg. One, two, four, eight and 24 hours after the administration, blood was collected from orbit of two mice to obtain serum 100 μL of the obtained serum was added with internal standard solution and 1 mL of distilled water and then test compound and internal standard substance were extracted from the resulting mixture by diethyl ether. The organic layers were evaporated to dryness under reduced pressure and residues were dissolved in eluent to obtain HPLC measurement sample. The analysis was performed by HPLC with reversed-phase column and the eluent used was acetonitrile-phosphate buffer (pH 2.5). The drug concentration in the test serum was calculated by the calibration curve (Y=aX+b) obtained from standard substance. Area under the curve (AUC1h-24h) was calculated from the drug concentration in the serum, using WinNonlin (produced by the firm Pharsight, ver. 4.01).

The test system of data set [2] is Human colon cancer WiDr. The experiment in a line: in vitro antitumor test (50% growth inhibition concentration). The format is cell-based. Here is the method: This was also supported by the results of Table 3 below showing test results of in vitro antitumor test (comparative tests in 50% growth inhibition concentrations (GI50 μM) to Human colon cancer WiDr).

The subject of data set [3] is Human colon cancer WiDr. The experiment in a line: Test 2 (In Vivo Antitumor Test), subcutaneous WiDr tumor in nude mice. Further details: species or system mutant BALB/c nude mice; key to evaluation: Cases where T/C (%) of the last day was less than 50% and U-assay of Mann-Whitney revealed significant difference with one-sided risk rate of 1% were evaluated to be effective (+); ineffective (−). Particulars: oral 100 mg/kg once a day, six times a week, for two weeks; for evaluation: T/C of the last day and Mann-Whitney U-assay; for T/C (%): relative tumor growth rate, last day. Here is the method:
Human colon cancer WiDr was grown as subcutaneous tumor in mutant BALB/c nude mice. 2-mm-cube tumor fragments were transplanted subcutaneously into left flank of the nude mice. When the tumor reached logarithmic growth phase, mice were divided randomly into test groups consisting five mice per group. The samples prepared by dissolving test compound in dichloromethane with a ratio of the test compound to HPC(L) being 1:2.5, dried under reduced pressure and suspended in distilled water. The samples were then orally administered at a rate of test compound 100 mg/kg, once a day and six times a week in total, for two weeks. The length and width of the tumor mass were measured on a daily basis to calculate tumor volume. The tumor volume at each measured day was divided by that at the start day of the sample administration to calculate relative tumor growth rate; and the relative tumor growth rate of the treated groups (T) and that of the control group (C) were used to calculate T/C(%).

For orientation: GI50 means the concentration giving 50% growth inhibition. Broadly, the melting point is the temperature of the solid-liquid transition.

For the molecule `COc1cccc2c1nc(C(F)F)n2-c1nc(N2CCOCC2)cc(N2C[C@H](C)O[C@@H](C)C2)n1` (relative stereo) [compound 4, 2-(2-difluoromethyl-4-methoxybenzimidazol-1-yl)-4-(trans-2,6-dimethylmorpholino)-6-morpholinopyrimidine], in data set [1], the AUC(0-t) is 138 µg·h/mL.
As to `COc1cccc2c1nc(C(F)F)n2-c1nc(N2CCOCC2)cc(N2C[C@@H](C)O[C@@H](C)C2)n1` [compound 1, 2-(2-difluoromethyl-4-methoxybenzimidazol-1-yl)-4-(cis-2,6-dimethylmorpholino)-6-morpholinopyrimidine], in the data set on Human colon cancer WiDr [2], the GI50 is 0.45 µM. In addition, the AUC(0-t) in data set [1] was determined as 332 µg·h/mL. Also, in the data set with Human colon cancer WiDr [3], the evaluation entry is “+ (Cases where T/C (%) of the last day was less than 50% and U-assay of Mann-Whitney revealed significant difference with one-sided risk rate of 1% were evaluated to be effective (+))”; the “T/C (%)” value is 35.7%.
In the case of `COc1cccc2c1nc(C(F)F)n2-c1nc(N2CCOCC2)nc(N2C[C@@H](C)O[C@@H](C)C2)n1` [compound 6, 2-(2-difluoromethyl-4-methoxybenzimidazol-1-yl)-4-(cis-2,6-dimethylmorpholino)-6-morpholino-1,3,5-triazine], the melting point lay in the range of 235 to 237 °C.
On the same count and under the same terms, then `CCOc1cccc2c1nc(C(F)F)n2-c1nc(N2CCOCC2)cc(N2CCOCC2)n1` [compound 8, 2-(2-difluoromethyl-4-ethoxybenzimidazol-1-yl)-4,6-dimorpholinopyrimidine], with 188 to 190 °C.
With `COc1cccc2c1nc(C(F)F)n2-c1nc(N2CCOCC2)cc(N2CCOC(C)(C)C2)n1` [compound 2, 2-(2-difluoromethyl-4-methoxybenzimidazol-1-yl)-4-(2,2-dimethylmorpholino)-6-morpholinopyrimidine], the melting point was in the range of 166 to 168 °C. For the same molecule, the GI50 with Human colon cancer WiDr [2] was 0.14 µM. In addition, the AUC(0-t) in data set [1] stood at 146 µg·h/mL. Also, in the data set on Human colon cancer WiDr [3], the evaluation entry is “+ (Cases where T/C (%) of the last day was less than 50% and U-assay of Mann-Whitney revealed significant difference with one-sided risk rate of 1% were evaluated to be effective (+))”; the “T/C (%)” value was determined as 28.8%.
In turn, `COc1cccc2c1nc(C(F)F)n2-c1nc(N2CCOCC2)cc(N2CCO[C@@H](C)[C@H]2C)n1` (relative stereo) [compound 3, 2-(2-difluoromethyl-4-methoxybenzimidazol-1-yl)-4-(cis-2,3-dimethylmorpholino)-6-morpholinopyrimidine] had a melting point of 176 to 178 °C. Also, in data set [1], the AUC(0-t) turned out to be 87 µg·h/mL.
As for `C[C@H]1CN(c2cc(N3CCOCC3)nc(-n3c(C(F)F)nc4c(O)cccc43)n2)C[C@H](C)O1` (relative stereo) [compound D, 2-(2-difluoromethyl-4-hydroxybenzimidazol-1-yl)-4-(trans-2,6-dimethylmorpholino)-6-morpholinopyrimidine, reference compound], in data set [1], the AUC(0-t) worked out at 68 µg·h/mL.
`C[C@@H]1CN(c2cc(N3CCOCC3)nc(-n3c(C(F)F)nc4c(O)cccc43)n2)C[C@H](C)O1` [compound A, 2-(2-difluoromethyl-4-hydroxybenzimidazol-1-yl)-4-(cis-2,6-dimethylmorpholino)-6-morpholinopyrimidine]: the GI50 in the data set on Human colon cancer WiDr [2] stood at 0.15 µM. Moreover, in data set [1], the AUC(0-t) stood at 17 µg·h/mL. Further, in the data set with Human colon cancer WiDr [3], the evaluation result is recorded as “−” and the “T/C (%)” value came to 78.3%.
`COc1cccc2c1nc(C(F)F)n2-c1nc(N2CCOCC2)nc(N2CC(C)(C)OCC2(C)C)n1` [compound 7, 2-(2-difluoromethyl-4-methoxybenzimidazol-1-yl)-4-(2,2,5,5-tetramethylmorpholino)-6-morpholino-1,3,5-triazine] yielded a melting point of 209 to 211 °C.
As for `C[C@@H]1OCCN(c2cc(N3CCOCC3)nc(-n3c(C(F)F)nc4c(O)cccc43)n2)[C@@H]1C` (relative stereo) [compound C, 2-(2-difluoromethyl-4-hydroxybenzimidazol-1-yl)-4-(cis-2,3-dimethylmorpholino)-6-morpholinopyrimidine, reference compound], the AUC(0-t) in data set [1] was determined as 17 µg·h/mL.
For `COc1cccc2c1nc(C(F)F)n2-c1nc(N2CCOCC2)cc(N2CCOCC2)n1` [compound 5, 2-(2-difluoromethyl-4-methoxybenzimidazol-1-yl)-4,6-dimorpholinopyrimidine], the melting point was 203 to 205 °C.
In turn, `CCOc1cccc2c1nc(C(F)F)n2-c1nc(N2CCOCC2)cc(N2CCOC(C)(C)C2)n1` [compound 9, 2-(2-difluoromethyl-4-ethoxybenzimidazol-1-yl)-4-(2,2-dimethylmorpholino)-6-morpholinopyrimidine] yielded a melting point of 114 to 116 °C. Moreover, the AUC(0-t) in data set [1] came out at 88 µg·h/mL.
In turn, `CC1(C)CN(c2cc(N3CCOCC3)nc(-n3c(C(F)F)nc4c(O)cccc43)n2)CCO1` [compound B, 2-(2-difluoromethyl-4-hydroxybenzimidazol-1-yl)-4-(2,2-dimethylmorpholino)-6-morpholinopyrimidine, reference compound] yielded a GI50 in the data set with Human colon cancer WiDr [2] of 0.09 µM. Moreover, in data set [1], the AUC(0-t) came out at 5 µg·h/mL. Moreover, in the data set with Human colon cancer WiDr [3], the evaluation result was “−” and the “T/C (%)” value is recorded as 88.4%.
